Laboratory results as given in US10532066B2, “Surfactant lipids, compositions thereof, and uses thereof” (National Jewish Health, priority 2007, dated 2020).
Entries after “also recorded” stand apart in the source; their conditions may differ.

Tests used:
[1] = tested on: differentiated U937 cells; test: LPS-induced TNF-α production by U937 cells in serum free media (without LBP); assay type: cell-based, human; conditions: for LPS-induced synthesis and secretion of TNF-α in serum free media: LPS 10 ng/ml, 6 h, without LBP; for potency as LPS antagonist without LBP: serum free media compared with serum
Method: U937 cells were induced to differentiate by incubation in medium containing 10 nM of phorbol myristate acetate (PMA) for 48 h. The cells (1.3×10^5/well) were placed on 96-well plates and further incubated in the absence of PMA for 24 h in RPMI 1640 medium containing 10% BGS. After the cells were washed with PBS, the indicated concentration of phospholipids was preincubated with the cells in RPMI without serum for 30 min before adding LPS. The indicated amount of LPS was then added into the well and incubated for 6 h at 37° C. with 5% CO2. The culture medium was collected and assayed for TNF-α secretion using an ELISA kit (Invitrogen).

[2] = tested on: MAPK, IkBα and MKP-1 in differentiated U937 cells; test: Western blot of LPS induced MAPK and IkBα phosphorylation and MKP-1 expression; assay type: cell-based, human; conditions: LPS 10 ng/ml; for LPS-induced MKP-1 expression / LPS-induced phosphorylation of p38, ERK, JNK and IkBα: liposomes 200 μg/ml; for LPS-induced phosphorylation of p38, ERK, JNK and IkBα: 15-60 min
Method: FIG. 4. POPG inhibits LPS induced MAPK and IkBα phosphorylation and MKP-1 expression. POPG liposomes (200 μg/ml) were added to monolayer cultures of differentiated U937 cells that received either no treatment or 10 ng/ml LPS. After incubating for the indicated time, cells were lysed using lysis buffer containing detergent, protease inhibitors and phosphatase inhibitors. Aliquots with 15 μg of protein from lysates were separated by SDS-PAGE and transferred onto nitrocellulose membranes. The amount of phosphorylation was detected using phospho-specific antibodies to p38MAPK, p42/p44 ERK, p46-p54 INK and phosphorylated IkBα. To determine equal loading of proteins between samples, the membranes were probed with rabbit polyclonal p46 INK, p42/p44 ERK, p38MAPK and IkBα antibodies. The expression of MKP-1 was detected with a polyclonal MKP-1 antibody.
FIG. 5. Quantification of POPG inhibition of LPS induced signaling. Western blot analysis as described in FIG. 4 was performed three or four times on separate samples and the intensity of phospho-p38, phospho-IkBα, phosphoERK, phospho JNK, phospho IkBα, total IkBα and MKP-1 was calculated using NIH Image J1.34 software.
FIG. 6. Molecular specificity in POPG action. Liposomes composed of POPC, DPPG or POPG were added to monolayer cultures of differentiated U937 cells that received either no treatment or 10 ng/ml LPS, as indicated. After 30 or 60 min cells were lysed and 15 μg of cellular protein from cultures was separated by SDS-PAGE and transferred onto nitrocellulose membranes. Phosphorylated and nonphosphorylated proteins were detected as described in FIG. 4.
FIG. 7. Comparative quantification of lipid dependent antagonism of LPS signaling. Western blot analysis was performed as described in FIG. 6 in three independent experiments. The intensity of the phosphorylated (p38, ERK, JNK and IkBα) and nonphosphorylated (total IkBα and MKP-1) proteins of interest was measured using NIH Image 0.1.34 software. Significance—*p<0.05, ** p<0.01.
Monolayers of unstimulated or stimulated macrophages were lysed on ice with 250 μl of ice-cold lysis buffer [50 mM Tris.HCl, pH 8.0, containing 137 mM NaCl, 10% (vol/vol) glycerol, 1% (vol/vol) Nonidet P-40, 1 mM NaF, 10 μg/ml leupeptin, 10 μg/ml aprotinin, 2 mM Na3VO4, and 1 mM phenylmethylsulfonyl fluoride (29). Insoluble nuclear material was pelleted by centrifugation at 14,000×g for 10 min at 4° C. and the supernatants were collected. 15 μg of protein from lysates was separated by SDS-PAGE and transferred onto nitrocellulose membranes (30). The blots were then washed in Tris-Tween-buffered saline [TTBS, 20 mM Tris-HCl buffer, pH 7.6, containing 137 mM NaCl and 0.05% (vol/vol) Tween 20], blocked with 5% (wt/vol) nonfat dry milk for 1 hour, and probed according to the method described by Towbin et. al. (30) with phospho-specific antibodies to p46-p54 JNK, p42/p44 ERK, and p38MAPK, or IkBα or with a polyclonal MKP-1 or IkBα antibodies in 5% (wt/vol) BSA dissolved in TTBS. With the use of horseradish peroxidase-conjugated secondary anti-rabbit or anti-mouse antibody, bound antibodies were detected by enhanced chemiluminescence (ECL plus, Amersham Biosciences, Piscataway, N.J.). To determine loading of proteins between samples, the membranes were probed with rabbit polyclonal p46 JNK, p42/p44 ERK, and p38MAPK antibodies.

TLR5 = target: T1, TLR5 (Homo sapiens, UniProt O60602); test: TLR agonist IL-8 production in BEAS2B epithelial cells, TLR5; assay type: cell-based; conditions: flagellin, 48 h
T1 construct: endogenous in cells; host or cells: BEAS2B
Method: In this experiment, multiple TLRs were stimulated with defined TLR agonists for 48 h, and the IL-8 production was measured. In each case, the maximal stimulation by agonist is set at 100% and the antagonism by POPG or PI is expressed as the relative % response. The Controls consist of no treatment, or treatment with POPG, or phosphatidylcholine (POPC), or phosphatidylinositol (PI), in the absence of agonist as indicated. The agonists for the TLRs consist of Pam3Cys for TLR1/2, Mycoplasma pneumoniae membranes as an agonist for TLR2, Mycoplasma fermentans derived MALP2 as an agonist for TLR 2/6, double stranded RNA (poly IC) for TLR3, and bacterial flagellin (Fla) as an agonist for TLR5.
Monolayers of BEAS2B cells were challenged with the TLR1/2 agonist, Pam3Cys (25 ug/ml); the TLR 2/6 agonist MALP2 (10 ng/ml); the TLR2 agonist mycoplasma membrane (Mem) (1 ug/ml); the TLR3 agonist, poly I:C (0.1 ug/ml); and the TLR5 agonist, flagellin (100 ng/ml). For each agonist parallel incubations were performed containing 200 ug/ml POPG as liposomes, or 200 ug/ml POPG as nanodises as indicated.

T1 sequence (O60602 21-858): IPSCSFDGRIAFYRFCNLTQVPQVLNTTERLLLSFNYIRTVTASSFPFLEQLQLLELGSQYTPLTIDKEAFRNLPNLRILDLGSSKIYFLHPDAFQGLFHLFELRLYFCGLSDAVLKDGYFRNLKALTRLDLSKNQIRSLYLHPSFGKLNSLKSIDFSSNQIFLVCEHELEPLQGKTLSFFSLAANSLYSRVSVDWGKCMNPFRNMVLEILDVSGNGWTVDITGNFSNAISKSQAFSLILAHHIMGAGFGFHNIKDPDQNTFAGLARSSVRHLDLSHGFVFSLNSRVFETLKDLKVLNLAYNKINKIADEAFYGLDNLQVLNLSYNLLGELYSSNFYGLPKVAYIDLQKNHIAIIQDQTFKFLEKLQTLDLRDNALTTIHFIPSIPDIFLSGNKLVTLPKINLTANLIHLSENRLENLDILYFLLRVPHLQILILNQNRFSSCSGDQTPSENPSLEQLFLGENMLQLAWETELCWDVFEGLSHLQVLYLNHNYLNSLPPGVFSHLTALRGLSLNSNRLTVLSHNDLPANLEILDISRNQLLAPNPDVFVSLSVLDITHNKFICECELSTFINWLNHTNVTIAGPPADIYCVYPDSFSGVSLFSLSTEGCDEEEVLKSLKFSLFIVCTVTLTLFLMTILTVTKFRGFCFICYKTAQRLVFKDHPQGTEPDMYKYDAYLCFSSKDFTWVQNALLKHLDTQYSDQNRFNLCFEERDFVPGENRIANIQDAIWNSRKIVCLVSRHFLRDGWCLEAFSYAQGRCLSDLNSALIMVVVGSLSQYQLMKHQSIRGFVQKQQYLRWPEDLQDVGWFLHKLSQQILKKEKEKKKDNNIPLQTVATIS

| Compound | LPS-induced synthesis and secretion of TNF-α in serum free media [1] | potency as LPS antagonist without LBP [1] | LPS-induced MKP-1 expression [2] | LPS-induced phosphorylation of p38, ERK, JNK and IkBα [2] | LPS-induced reduction (degradation) of steady state IkBα ([2]; POPG 200 μg/ml) | activity of TLR5 (IL-8 production) (TLR5) |
| --- | --- | --- | --- | --- | --- | --- |
| CCCCCCCCCCCCCC(=O)OCC(COP(=O)(O)OCC(O)CO)OC(=O)CCCCCCCCCCCCC (stereo not drawn) [DMPG, dimyristoyl-phosphatidylglycerol] | still inhibited | continues to remain high |  |  |  |  |
| CCCCCCCCCCCCCCCC(=O)OCC(COP(=O)(O)OCC(O)CO)OC(=O)CCCCCCCCCCCCCCC (stereo not drawn) [DPPG, dipalmitoyl-phosphatidylglycerol, reference compound] |  |  | neither POPC nor DPPG exerted a significant effect | neither POPC nor DPPG exerted a significant effect |  |  |
| CCCCCCCC/C=C\CCCCCCCC(=O)O[C@H](COC(=O)CCCCCCCCCCCCCCC)COP(=O)(O)OCC(O)CO (stereo partly drawn) [POPG, palmitoyl-oleoyl-phosphatidylglycerol] | still inhibited | modestly diminished | blocked the synthesis; also recorded: reduced to control levels; also recorded: potently inhibited | reduced; also recorded: eliminated the phosphorylation; also recorded: significantly reduces; also recorded: potently inhibited | abrogated the reduction; also recorded: remained constant | not |
| phosphatidylinositol [PI] | still inhibited | modestly diminished | reduced | reduced |  | not |
